# Assay results reported in patent publication US20180185347A1, “TETRAHYDROCYCLOPENTA[B]INDOLE COMPOUNDS AND PHOSPHODIESTERASE INHIBITORS FOR THE TREATMENT OF THE SIGNS AND SYMPTOMS OF BHP” (Transition Therapeutics (Ireland 2) Limited, priority 2016, published 2018).
# “Also recorded” adds a separate entry of the source.
# Legend:
# [1] = Rat bioavailability; assay type: in vivo
# [2] = target: T1, human androgen receptor (hAR) (Homo sapiens, UniProt P10275); test: AR binding affinity (Ki)
# T1 sequence (P10275 1-920): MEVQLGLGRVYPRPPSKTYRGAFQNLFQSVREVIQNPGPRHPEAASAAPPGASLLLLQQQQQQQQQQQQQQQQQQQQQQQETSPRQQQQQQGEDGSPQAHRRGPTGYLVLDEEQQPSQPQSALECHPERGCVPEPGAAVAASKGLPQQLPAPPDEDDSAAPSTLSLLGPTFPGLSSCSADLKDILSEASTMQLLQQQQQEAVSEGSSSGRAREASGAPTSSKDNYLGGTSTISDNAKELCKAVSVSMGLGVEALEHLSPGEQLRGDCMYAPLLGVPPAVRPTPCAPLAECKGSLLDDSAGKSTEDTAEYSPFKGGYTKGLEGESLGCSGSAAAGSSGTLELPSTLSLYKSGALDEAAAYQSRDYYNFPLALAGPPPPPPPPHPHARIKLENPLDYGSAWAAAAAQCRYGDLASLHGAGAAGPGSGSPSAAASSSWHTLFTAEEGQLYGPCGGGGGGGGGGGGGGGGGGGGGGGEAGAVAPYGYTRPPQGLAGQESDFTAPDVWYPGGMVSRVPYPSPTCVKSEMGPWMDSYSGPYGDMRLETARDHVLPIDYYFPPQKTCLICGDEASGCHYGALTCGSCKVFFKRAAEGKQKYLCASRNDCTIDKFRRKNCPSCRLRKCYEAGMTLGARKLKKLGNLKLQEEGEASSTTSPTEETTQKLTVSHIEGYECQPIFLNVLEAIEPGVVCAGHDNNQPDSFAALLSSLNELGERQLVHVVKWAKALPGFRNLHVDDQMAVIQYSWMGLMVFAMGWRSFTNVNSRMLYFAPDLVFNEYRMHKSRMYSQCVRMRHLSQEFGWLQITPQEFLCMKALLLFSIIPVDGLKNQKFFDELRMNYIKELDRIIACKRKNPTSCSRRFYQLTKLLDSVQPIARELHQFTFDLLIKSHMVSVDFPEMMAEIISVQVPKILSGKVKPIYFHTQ
# [3] = Study GPBA single oral dose pharmacokinetics; settings: human, in vivo, healthy subjects; for Cmax: geometric mean; for Tmax: median
# [4] = tested on: dogs; test: Dog toxicology program: prostate weight and atrophy; assay type: in vivo; set-up: key to Prostate weight (mean % decrease): “”: no effect observed; settings: for Prostate weight (mean % decrease): dog
# [5] = tested on: orchidectomized rats; test: Testosterone induced prostate / seminal vesicle growth in delayed ORX rat model; assay type: in vivo
# Source text: Orchidectomized (ORX) and sham-operated Wistar male rats were used (orchidectomized at 8 weeks of age and allowed to waste for 4 weeks). […] Rats were randomized and placed into treatment groups (n=6) based on body weight. Route of administration for all groups except testosterone enanthate (TE was given sub-cutaneously) was oral. At the end of 2 weeks of daily rats were euthanized, weighed & tissue harvested. Levator ani, prostates, and seminal vesicles were collected from each animal. Results are plotted as means±SE.
# [6] = Clinical safety and laboratory parameters; settings: for hemoglobin and hematocrit: any dose tested, 12 weeks
compound,measurement,setting,value
"CC(C)OC(=O)N[C@H]1Cc2c(n(Cc3ccccn3)c3ccc(C#N)cc23)C1 [compound of Formula II, (S)-(7-cyano-4-pyridin-2-ylmethyl-1,2,3,4-tetrahydro-cyclopenta[b]indol-2-yl)-carbamic acid isopropyl ester]",bioavailability,"[1]; in vivo, read-out: Rat F %",63%
same,Rat F %,[1]; listed as TT701,63%
same,binding affinity for hAR compared to other nuclear hormone receptors,[2],> 500 fold
same,Cmax,[3]; single oral dose 5 mg,25.9 ng/mL
same,Tmax,[3]; single oral dose 5 mg,5 h
same,Cmax,[3]; single oral dose 25 mg,123 ng/mL
same,Tmax,[3]; single oral dose 25 mg,4 h
same,Cmax,[3]; single oral dose 250 mg,589 ng/mL
same,Tmax,[3]; single oral dose 250 mg,5 h
same,Cmax,[3]; single oral dose 500 mg,817 ng/mL
same,Tmax,[3]; single oral dose 500 mg,4 h
same,Cmax,[3]; single oral dose 1000 mg,910 ng/mL
same,Tmax,[3]; single oral dose 1000 mg,4.5 h
same,Prostate weight (mean % decrease),"[4]; 1+ months, 3 mg/kg/day",“”
same,Prostate weight (mean % decrease),"[4]; 1+ months, 30 mg/kg/day",“”
same,Prostate weight (mean % decrease),"[4]; 1+ months, 150 mg/kg/day",“”
same,Prostate weight (mean % decrease),"[4]; 6+ months, 3 mg/kg/day",^↓63%
same,Prostate weight (mean % decrease),"[4]; 6+ months, 30 mg/kg/day",^↓66%
same,Prostate weight (mean % decrease),"[4]; 6+ months, 150 mg/kg/day",^↓75%
same,Prostate weight (mean % decrease),"[4]; 12 months, 3 mg/kg/day",^↓60%
same,Prostate weight (mean % decrease),"[4]; 12 months, 10 mg/kg/day",^↓62%
same,Prostate weight (mean % decrease),"[4]; 12 months, 100 mg/kg/day",^↓80%
same,decreases in prostate weight,"[4]; dogs, by 3 months (so in the source)",60-75%
same,decrease in prostate size,"[4]; normal dogs, six-month treatment period",60%
same,"prostate weights, Abs(Dif)-LSD vs ORX + TE control",[5]; 1 mg/kg/d + 3 mg/kg/d,−0.11
same,"seminal vesicle wet weights, Abs(Dif)-LSD vs ORX + TE control",[5]; 1 mg/kg/d + 3 mg/kg/d,−0.34
same,"prostate weights, Abs(Dif)-LSD vs ORX + TE control",[5]; 1 mg/kg/d + 10 mg/kg/d,0.036
same,"seminal vesicle wet weights, Abs(Dif)-LSD vs ORX + TE control",[5]; 1 mg/kg/d + 10 mg/kg/d,0.078
same,"prostate weights, Abs(Dif)-LSD vs ORX + TE control",[5]; 1 mg/kg/d + 30 mg/kg/d,0.025
same,prostate and seminal vesical weights normalized to body weight compared to TE alone,"[5]; ORX rat, TE 1 mg/kg/d + 3, 10 and 30 mg/kg/d, 2 weeks",decreasing prostate weight and seminal vesical weights; also recorded: reduced testosterone induced effects on prostate size
same,HDL cholesterol levels and apolipoprotein A1,[6]; Study GPEC,decreased
same,testosterone,"[6]; Study GPEC, 12-week, elderly men, with reduction of SHBG",clinically meaningful decrease
same,"systolic blood pressure, diastolic blood pressure, or heart rate",[6]; clinical studies,did not yield any significant changes
same,decrease in the levels of endogenous testosterone,[6]; clinical studies in patients with androgen deficiency,20-30%
same,"total bilirubin, GGT, or alkaline phosphatase","[6]; clinical studies, any dose",no significant increases
same,hemoglobin and hematocrit,[6]; clinical,no increases
same,hemoglobin and hematocrit,"[6]; clinical, listed as TT701",no change in Hematocrit
same,immunotoxicity safety signal,"[6]; clinical, to date",no immunotoxicity safety signal has been observed
same,dose demonstrated safe in clinical studies,"[6]; human, in vivo",up to 1000 mgs/day
same,decrease in HDL,"[6]; patients, 5 mg for 12 weeks",20%
same,liver transaminases (AST or ALT),"[6]; phase 2 study, three subjects, two ≥2×ULN, one ≥3×ULN",transient abnormal AST or ALT
